Values of other authors in patent US20050272649A1, “Conjoint administration of morphogens and ACE inhibitors in treatment of chronic renal failure” (priority 2002, published 2005).
Entries after “also recorded” stand apart in the source; their conditions may differ. Where two headings read alike, the source gives them in different places.

Key:
[1] = tested on: hypertension; details: cited from earlier work; for safety / tolerability (in words): clinical studies
[2] = oral administration; cited from earlier work
[3] = target: T1, AT1 receptor (Homo sapiens, UniProt P30556); details: cited from earlier work
T1 sequence (P30556 1-359): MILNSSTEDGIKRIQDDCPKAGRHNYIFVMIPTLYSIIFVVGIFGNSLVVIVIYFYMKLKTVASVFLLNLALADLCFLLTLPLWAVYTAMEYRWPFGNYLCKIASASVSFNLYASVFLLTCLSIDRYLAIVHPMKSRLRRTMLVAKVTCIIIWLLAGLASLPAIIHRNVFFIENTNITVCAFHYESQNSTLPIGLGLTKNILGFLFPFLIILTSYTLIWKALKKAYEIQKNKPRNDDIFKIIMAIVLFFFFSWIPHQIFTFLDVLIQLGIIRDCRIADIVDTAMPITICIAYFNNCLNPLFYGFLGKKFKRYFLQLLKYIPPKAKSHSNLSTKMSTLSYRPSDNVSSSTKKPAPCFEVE

[4] = comparator and dosages as stated in the sentence
[5] = olmesartan medoxomil 20 mg starting dose

| SMILES | safety / tolerability (in words) [1] | antihypertensive efficacy compared (in words) [1, 4] | oral absorption / bioavailability / pharmacokinetics (in words) [2] | also measured |
| --- | --- | --- | --- | --- |
| CCOc1nc2cccc(C(=O)O)c2n1Cc1ccc(-c2ccccc2-c2nnn[nH]2)cc1 [Candesartan] | both safe and well tolerated | Comparable reductions of diastolic blood pressure | poorly absorbed after oral administration | diastolic blood pressure reduction, adjusted mean more than the 50-mg losartan dosage ([1]; candesartan 16 mg per day): 3.7 mm Hg; affinity for the AT1 receptor relative to affinity for the AT2 receptor [3]: more than 10,000 times |
| CCCCC1=NC2(CCCC2)C(=O)N1Cc1ccc(-c2ccccc2-c2nnn[nH]2)cc1 [Irbesartan] | safe and effective | as effective as enalapril and atenolol in reducing blood pressure |  | antihypertensive efficacy compared (in words) ([1]; comparator and dosages as stated in the sentence, listed as irbesartan): significantly greater; affinity for the AT1 receptor relative to affinity for the AT2 receptor [3]: more than 8,500 times |
| CCCCc1nc(Cl)c(CO)n1Cc1ccc(-c2ccccc2-c2nn[nH]n2)cc1 [Losartan] | well tolerated |  |  | antihypertensive efficacy compared (in words) ([1]; comparator and dosages): as efficacious as enalapril and nifedipine for lowering blood pressure; also recorded: no significant difference in antihypertensive efficacy; duration of activity for a dose ([1]; losartan): 24 h |
| CCCc1nc2c(C)cc(-c3nc4ccccc4n3C)cc2n1Cc1ccc(-c2ccccc2C(=O)O)cc1 [Telmisartan] | side effect profile similar to that of placebo; also recorded: no rebound hypertension or first-dose orthostatic effect | slightly greater antihypertensive effect than enalapril | Nonlinear pharmacokinetics |  |
| CCCCC(=O)N(Cc1ccc(-c2ccccc2-c2nnn[nH]2)cc1)[C@H](C(=O)O)C(C)C [Valsartan] | both safe and effective | as effective as ACE inhibitors enalapril, lisinopril and amlodipine |  |  |
| CCOc1nc2cccc(C(=O)OC(C)OC(=O)OC3CCCCC3)c2n1Cc1ccc(-c2ccccc2-c2nnn[nH]2)cc1 (stereo not drawn) [candesartan cilexetil] |  |  | improves bioavailability; also recorded: conversion to the active compound occurs rapidly and completely |  |
| CCCc1nc(C(C)(C)O)c(C(=O)OCc2oc(=O)oc2C)n1Cc1ccc(-c2ccccc2-c2nnn[nH]2)cc1 [olmesartan medoxomil] |  | superior to losartan |  | reduction of diastolic pressure (average) [1, 5]: 12 mm Hg; reduction of systolic pressure (average) [1, 5]: 15 mm Hg |
